Drawing on patent US20050075269A1, “Substituted benzofuran-2-carboxamides derivatives” (priority 2001, published 2005), this text covers melting point for 1 compound.

Where a name gives a salt, the structure may show the parent alone.

By melting point is commonly meant the temperature, or range, at which the solid turns liquid.

In turn, `CNCCNC(=O)c1cc2cc(N3CCN(CCCCc4c[nH]c5ccc(C#N)cc45)CC3)ccc2o1` (as salt: hydrochloride) [f), N-(2-methylaminoethyl)-5-{4-[4-(5-cyano-1H-indol-3-yl)butyl]piperazin-1-yl}benzofuran-2-carboxamide] displayed a melting point of more than 233 °C.
